≈ marks a conversion by molar mass, not a printed value. Like-named read-outs stand apart in the source and are kept apart here.
Assays:
[1] = test system: S. aureus ATCC 25923; experiment: Antibacterial activity, pre-exposure (planktonic cells and biofilm formation); type: cell-based, Staphylococcus aureus; settings: for MIC / inhibition at 5 µM / inhibition at 10 µM / inhibition at 15 µM / inhibition at 25 µM: Staphylococcus aureus, ATCC25923; for inhibition at 5 µM / inhibition at 10 µM / inhibition at 15 µM / inhibition at 25 µM / Average inhibition %, biofilms viability / Average inhibition %, planktonic cells viability: pre-exposure, ± SD
Summary of the method: (§1)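 Read-outs were turbidity and resazurin reduction for planktonic cells, and resazurin followed by crystal violet biomass (A595) for biofilms. Compounds were present from inoculation onward, with 18 h aerobic growth at 37 °C under shaking.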

[2] = test system: P. aeruginosa ATCC 9027; experiment: Antibacterial activity, pre-exposure; type: cell-based, Pseudomonas aeruginosa; settings: for Average inhibition %, biofilms viability / Average inhibition %, planktonic cells viability / inhibition at 50 µM / inhibition at 100 µM / inhibition at 150 µM / inhibition at 200 µM: P. aeruginosa ATCC 9027, pre-exposure, ± SD; for inhibition at 50 µM / inhibition at 100 µM / inhibition at 150 µM / inhibition at 200 µM: Pseudomonas aeruginosa, ATCC9027
Summary of the method: as §1

[3] = test system: A. baumannii NCTC 13423; experiment: Antibacterial activity, pre-exposure; type: cell-based, Acinetobacter baumannii; settings: for Average inhibition %, biofilms viability / Average inhibition %, planktonic cells viability / inhibition at 10 µM / inhibition at 15 µM / inhibition at 25 µM / inhibition at 50 µM: A. baumannii NCTC 13423, pre-exposure, ± SD; for inhibition at 10 µM / inhibition at 15 µM / inhibition at 25 µM / inhibition at 50 µM / MIC: Acinetobacter baumannii, NCTC13423
Summary of the method: as §1

[4] = test system: S. aureus ATCC 25923; experiment: Antibacterial activity, post-exposure on preformed 18-h-old biofilms; type: cell-based, Staphylococcus aureus; settings: ± SD; for inhibition at 25 µM / inhibition at 50 µM / inhibition at 100 µM / inhibition at 200 µM: Staphylococcus aureus; for inhibition at 25 µM: ATCC25923, 25 µM; for inhibition at 50 µM: ATCC25923, 50 µM; for inhibition at 100 µM: ATCC25923, 100 µM; for inhibition at 200 µM: ATCC25923, 200 µM
Summary of the method: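 Biofilms grown 18 h without compound, medium then replaced and compound added for a further 24 h. Planktonic OD and resazurin (20 μM final) fluorescence (ex 560/em 590 nm) read; washed biofilms stained with 20 μM resazurin 30 min at 37 °C, then ethanol-fixed and crystal violet-stained, absorbance 595 nm.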

[5] = 10 µM, read-out: Average inhibition %, biofilms biomass
[6] = 10 µM, read-out: Average inhibition %, planktonic cells turbidity
[7] = 15 µM, read-out: Average inhibition %, biofilms biomass
[8] = 15 µM, read-out: Average inhibition %, planktonic cells turbidity
[9] = 25 µM, read-out: Average inhibition %, biofilms biomass
[10] = 25 µM, read-out: Average inhibition %, planktonic cells turbidity
[11] = 50 µM, read-out: Average inhibition %, biofilms biomass
[12] = 50 µM, read-out: Average inhibition %, planktonic cells turbidity
[13] = read-out: Average inhibition %, biofilms biomass
[14] = read-out: Average inhibition %, planktonic cells turbidity

MIC ([1]; lowest concentration with no visible growth (>90% inhibition of turbidity and viability of planktonic cells), 18 h, read-out: MIC S. aureus ATCC 25923): 15 to 25 µM (≈ 4.58 to 7.64 µg/mL) | MIC ([1]; read-out: MIC (S. aureus)): 15 to 25 µM (≈ 4.58 to 7.64 µg/mL) | MIC P. aeruginosa ATCC 9027 ([2]; pre-exposure, Inactive = no activity up to 200 μM, > = some inhibition but no MIC reached): Inactive | MIC ([3]; pre-exposure, Inactive = no activity up to 50 μM, > = some inhibition but no MIC reached, read-out: MIC A. baumannii NCTC 13423): > 50 µM | MIC ([3]; supplementary molecular formula strings sheet, read-out: MIC (A. baumannii)): > 50 µM
Compound: CCCCCC/C=C/c1ccc(CCC(N)(CO)CO)cc1 [Compound 42, (E)-2-Amino-2-[4-(oct-1-en-1-yl)phenethyl]propane-1,3-diol]
inhibition at 5 µM ([1]; 5 µM, read-out: Average inhibition %, biofilms biomass): 41 ± 12.1% | inhibition at 5 µM ([1]; 5 µM, read-out: Average inhibition %, planktonic cells turbidity): 18.8 ± 12.6% | inhibition at 10 µM [1, 5]: 62.5 ± 24.1% | inhibition at 10 µM [1, 6]: 53.3 ± 32.3% | inhibition at 15 µM [1, 7]: 80.5 ± 26.4% | inhibition at 15 µM [1, 8]: 84.6 ± 26.1% | inhibition at 25 µM [1, 9]: 95.1 ± 0.5% | inhibition at 25 µM [1, 10]: 99.4 ± 0.5% | Average inhibition %, biofilms viability ([1]; 5 µM): 16.3 ± 4.8% | Average inhibition %, planktonic cells viability ([1]; 5 µM): 1.7 ± 3% | Average inhibition %, biofilms viability ([1]; 10 µM): 55.9 ± 31% | Average inhibition %, planktonic cells viability ([1]; 10 µM): 31.6 ± 54.9% | Average inhibition %, biofilms viability ([1]; 15 µM): 81.1 ± 32.3% | Average inhibition %, planktonic cells viability ([1]; 15 µM): 66.4 ± 57.5% | Average inhibition %, biofilms viability ([1]; 25 µM): 99.2 ± 0.8% | Average inhibition %, planktonic cells viability ([1]; 25 µM): 99.6 ± 0.2% | Average inhibition %, biofilms viability ([2]; 50 µM): 3.9 ± 6.8% | Average inhibition %, planktonic cells viability ([2]; 50 µM): 24.8 ± 10.1% | Average inhibition %, biofilms viability ([2]; 100 µM): 1.5 ± 2.6% | Average inhibition %, planktonic cells viability ([2]; 100 µM): 15.1 ± 18% | Average inhibition %, biofilms viability ([2]; 150 µM): 0.9 ± 1.7% | Average inhibition %, planktonic cells viability ([2]; 150 µM): 18.9 ± 31% | Average inhibition %, biofilms viability ([2]; 200 µM): 0 ± 0% | Average inhibition %, planktonic cells viability ([2]; 200 µM): 27 ± 45% | inhibition at 50 µM [2, 11]: 30.1 ± 8.8% | inhibition at 50 µM [2, 12]: 16.3 ± 5.3% | inhibition at 100 µM ([2]; 100 µM, read-out: Average inhibition %, biofilms biomass): 30.3 ± 0.8% | inhibition at 100 µM ([2]; 100 µM, read-out: Average inhibition %, planktonic cells turbidity): 37.1 ± 13.5% | inhibition at 150 µM ([2]; 150 µM, read-out: Average inhibition %, biofilms biomass): 27.7 ± 2.1% | inhibition at 150 µM ([2]; 150 µM, read-out: Average inhibition %, planktonic cells turbidity): 45.1 ± 17.4% | inhibition at 200 µM ([2]; 200 µM, read-out: Average inhibition %, biofilms biomass): 36.2 ± 10.3% | inhibition at 200 µM ([2]; 200 µM, read-out: Average inhibition %, planktonic cells turbidity): 53.5 ± 14.1% | Average inhibition %, biofilms viability ([3]; 10 µM): 0.4 ± 0.3% | Average inhibition %, planktonic cells viability ([3]; 10 µM): 13.5 ± 3.1% | Average inhibition %, biofilms viability ([3]; 15 µM): 12.8 ± 7.2% | Average inhibition %, planktonic cells viability ([3]; 15 µM): 6 ± 6.6% | Average inhibition %, biofilms viability ([3]; 25 µM): 47.6 ± 37.1% | Average inhibition %, planktonic cells viability ([3]; 25 µM): 33.1 ± 52.5% | Average inhibition %, biofilms viability ([3]; 50 µM): 87.7 ± 9.8% | Average inhibition %, planktonic cells viability ([3]; 50 µM): 81 ± 27.7% | inhibition at 10 µM [3, 5]: 2.4 ± 4.3% | inhibition at 10 µM [3, 6]: 0% | inhibition at 15 µM [3, 7]: 6.2 ± 6% | inhibition at 15 µM [3, 8]: 0.6 ± 1% | inhibition at 25 µM [3, 9]: 18.2 ± 21.6% | inhibition at 25 µM [3, 10]: 40.8 ± 42.7% | inhibition at 50 µM [3, 11]: 67.2 ± 13.9% | inhibition at 50 µM [3, 12]: 83.1 ± 17.5% | Average inhibition %, biofilms viability ([4]; 25 µM): 20 ± 6.1% | Average inhibition %, planktonic cells viability ([4]; 25 µM): 2.8 ± 5% | Average inhibition %, biofilms viability ([4]; 50 µM): 42 ± 16% | Average inhibition %, planktonic cells viability ([4]; 50 µM): 19.1 ± 18.9% | Average inhibition %, biofilms viability ([4]; 100 µM): 48.3 ± 2.3% | Average inhibition %, planktonic cells viability ([4]; 100 µM): 68.7 ± 18.2% | Average inhibition %, biofilms viability ([4]; 200 µM): 44.8 ± 10.4% | Average inhibition %, planktonic cells viability ([4]; 200 µM): 35.1 ± 44.8% | inhibition at 25 µM [4, 13]: 39 ± 2.5% | inhibition at 25 µM [4, 14]: 12 ± 9.6% | inhibition at 50 µM [4, 13]: 54.1 ± 1.9% | inhibition at 50 µM [4, 14]: 29.7 ± 16.3% | inhibition at 100 µM [4, 13]: 54.8 ± 5.9% | inhibition at 100 µM [4, 14]: 56.9 ± 19.5% | inhibition at 200 µM [4, 13]: 59.8 ± 21% | inhibition at 200 µM [4, 14]: 46.2 ± 27.3%

Source: paper PMC8296573, “Synthesis and Biological Evaluation of Fingolimod Derivatives as Antibacterial Agents” (ACS Omega, 2021)
